Data reported in patent US20120208781A1, “AMINOGLYCOSIDE DOSING REGIMENS” (Achaogen, Inc., priority 2009, published 2012).
≈ marks a conversion by molar mass, not a printed value. Where “and” joins values, the source holds several entries; their conditions need not be identical. Identical values can stand only once. Like-named read-outs stand apart in the source and are kept apart here.

How the values were obtained:
[1] = Urine concentration analysis / urinary recovery of Compound 1 in beagle dogs; assay type: in vivo; details: 10 mg/kg IV; for % of Cmpd 1 recovered in urine: 24 hours; for concentration at 6 h / concentration at 12 h / concentration at 24 h: male, beagle, dog, urine, iv, read-out: Cmpd 1 urine concentration
Procedure: Male CD-1 mice, Sprague Dawley rats, and beagle dogs were administered Compound 1 intravenously. Compound 1 was preformulated as a sterile isotonic solution of 10 mg/mL in PBS. Specifically, male CD-1 mice were administered a single bolus IV injection of the Compound at 10 mg/kg, via a bolus IV injection into the tail vein. Two blood samples per mouse were collected by retro-orbital puncture into tubes containing the anticoagulant K2EDTA prior to dosing and at 0.033, 0.083, 0.25, 0.5, 1 and 24 hours. Rats were administered Compound 1 at 10 mg/kg via a bolus IV injection into the tail vein. Twelve blood samples per rat were collected via a jugular vein cannula into tubes containing the anticoagulant K2EDTA at various timepoints (i.e., 0.033, 0.083, 0.25, 0.5, 1, 2, 4, 6, 8, 10, 12, and 24 hours). Male beagle dogs were administered Compound 1 at 10 mg/kg through a temporary percutaneous catheter placed in a peripheral vein. Whole blood samples (0.5 mL) were collected from each dog prior to dosing and at 0.033, 0.083, 0.25, 0.5, 1, 2, 4, 6, 8, and 24 hours via direct venipuncture of a jugular or cephalic vein into tubes containing the anticoagulant K2EDTA. A sparse sampling method was employed to conserve animals and provide the best data possible from fewer mice. Samples were centrifuged, and plasma was collected and transferred into a new tube and frozen at −80° C. until they were analyzed.
Blood, urine, and kidney samples collected over 24 hours were analyzed for Compound 1 levels using LC-MS/MS. Method performance was acceptable in the concentration ranges necessary to determine plasma levels. Compound 1 plasma concentrations were determined by comparing Compound 1 concentration in the sample to a standard curve derived from LC-MS/MS measurements of the analyte. The standard curve fit was linear with a 1/x^2 weighting.

[2] = tested on: Enterobacteriaceae (ENT); assay: MIC, CLSI broth microdilution, worldwide isolates: Enterobacteriaceae; assay type: cell-based
Source text: In the first study, a total of 235 isolates were collected from medical centers worldwide and tested for susceptibility to Compound 1 and comparator agents by CLSI broth microdilution methods. […] Non-ENT GN pathogens included WT P. aeruginosa (PSA) and Acinetobacter spp. (ACB), and carbapenem (CARB)-R strains, including those with MBL and OXA enzymes, SA and coagulase-negative staphylococci (CoNS) included oxacillin-susceptible (MSSA/MS-CoNS) and —R (MRSA/MR-CoNS) strains.
Minimum inhibitory concentrations (MIC) were determined by reference Clinical and Laboratory Standards Institute (CLSI) broth microdilution methods per M7-A7 [2006]. Briefly, serial two-fold dilutions of Compound 1 and comparator AGs (together, “the test compounds”) were prepared at 2× concentration in appropriate diluent. The dilutions were mixed in 96-well assay plates with bacterial inoculum. Bacteria were suspended in sterile saline and added to each assay plate to obtain a final concentration of 5.5×10^5 CFU/mL. The plates were incubated at 35° C. for 20 hours in ambient air. […] After incubation, assay plates were read using a microtiter plate reader at 600 nm.

[3] = tested on: Enterobacter spp. (EB); assay: MIC, broth microdilution, Brooklyn hospital isolates: Enterobacter spp.; assay type: cell-based; details: Enterobacter; EB (n = 30)
Procedure: In another study, the activity of Compound 1 against a collection of contemporary Gram-negative bacteria was determined. Unique patient isolates of P. aeruginosa (PA), A. baumannii (AB), K. pneumoniae (KP), E. coli (EC), and Enterobacter spp. (EB) from prior surveys at 16 Brooklyn, N.Y. hospitals were selected based on resistance patterns. The majority of isolates were fingerprinted by automated ribotyping. MICs were performed by broth microdilution. PCR was used to identify aminoglycoside-modifying enzymes (AMEs) in AB and KP and the KPC gene in Enterobacteriaceae (EN). The expression of the efflux genes mexA, C, E and X in PA, and adeB in AB was assessed by real-time RT-PCR.

[4] = GLP 14-day repeat-dose safety study in dog; assay type: in vivo
Source text: The guidance states that the MRSD must be derived from the no observable adverse effect level (NOAEL) obtained in Good Laboratory Practice (GLP) nonclinical animal safety studies. […] Estimation of the human equivalent dose (HED) at the NOAEL is based on both a surface area conversion factor (SACF) and the data from these studies.

[5] = Enterobacteriaceae, KPC, NMC, SME (15)

## CN[C@@H]1[C@@H](O)[C@@H](O[C@@H]2[C@@H](O)[C@H](O[C@H]3OC(CNCCO)=CC[C@H]3N)[C@@H](N)C[C@H]2NC(=O)[C@@H](O)CCN)OC[C@]1(C)O [Compound 1, 6′-(2-Hydroxy-ethyl)-1-(4-amino-2(S)-hydroxy-butyryl)-sisomicin]
[1]; Dog 6001
  % of Cmpd 1 recovered in urine: 134%
[1]; Dog 6002
  % of Cmpd 1 recovered in urine: 135%
[1]; Dog 6003
  % of Cmpd 1 recovered in urine: 87%
[1]; Mean (±SD), 10 mg/kg
  % of Cmpd 1 recovered in urine: 119% and 119 ± 22%
[1]; Dog 6001, Total
  Cmpd 1 urine concentration: 1070 µg/mL
[1]; Dog 6002, Total
  Cmpd 1 urine concentration: 573 µg/mL
[1]; Dog 6003, 6 hr
  Cmpd 1 urine concentration: 1180 µg/mL
[1]; Dog 6003, Total
  Cmpd 1 urine concentration: 1324 µg/mL
[1]; 10 mg/kg, Dog 6001, 6 hr
  concentration at 6 h: 1000 µg/mL
[1]; 10 mg/kg, Dog 6001, 12 hr
  concentration at 12 h: 47 µg/mL
[1]; 10 mg/kg, Dog 6001, 24 hr
  concentration at 24 h: 24 µg/mL
[1]; 10 mg/kg, Dog 6002, 6 hr
  concentration at 6 h: 505 µg/mL
[1]; 10 mg/kg, Dog 6002, 24 hr
  concentration at 24 h: 68 µg/mL
[1]; 10 mg/kg, Dog 6003, 12 hr
  concentration at 12 h: 100 µg/mL
[1]; 10 mg/kg, Dog 6003, 24 hr
  concentration at 24 h: 44 µg/mL
[2]
  MIC50: ≤ 0.25 µg/mL
  MIC90: 2 µg/mL (≈ 3.37 µM)
[2]; Enterobacteriaceae (125)
  Cumulative % inhibited at Cmpd. MIC 1: 80.0%
  Cumulative % inhibited at Cmpd. MIC 2: 92.0%
  Cumulative % inhibited at Cmpd. MIC 4: 98.4%
  Cumulative % inhibited at Cmpd. MIC 8: 98.4%
  Cumulative % inhibited at Cmpd. MIC 16: 98.4%
  Cumulative % inhibited at Cmpd. MIC 32: 98.4%
  Cumulative % inhibited at Cmpd. MIC 64: 98.4%
  Cumulative % inhibited at Cmpd. MIC >64: 100.0%
  Cumulative % inhibited at Cmpd. MIC ≦0.5: 56.0%
[2]; Enterobacteriaceae, AmpC (20)
  Cumulative % inhibited at Cmpd. MIC 1: 85.0%
  Cumulative % inhibited at Cmpd. MIC 2: 95.0%
  Cumulative % inhibited at Cmpd. MIC 4: 95.0%
  Cumulative % inhibited at Cmpd. MIC 8: 95.0%
  Cumulative % inhibited at Cmpd. MIC 16: 95.0%
  Cumulative % inhibited at Cmpd. MIC 32: 95.0%
  Cumulative % inhibited at Cmpd. MIC 64: 95.0%
  Cumulative % inhibited at Cmpd. MIC >64: 100.0%
  Cumulative % inhibited at Cmpd. MIC ≦0.5: 75.0%
[2]; Enterobacteriaceae, ESBL (20)
  Cumulative % inhibited at Cmpd. MIC 1: 90.0%
  Cumulative % inhibited at Cmpd. MIC 2: 95.0%
  Cumulative % inhibited at Cmpd. MIC 4: 95.0%
  Cumulative % inhibited at Cmpd. MIC 8: 95.0%
  Cumulative % inhibited at Cmpd. MIC 16: 95.0%
  Cumulative % inhibited at Cmpd. MIC 32: 95.0%
  Cumulative % inhibited at Cmpd. MIC 64: 95.0%
  Cumulative % inhibited at Cmpd. MIC >64: 100.0%
  Cumulative % inhibited at Cmpd. MIC ≦0.5: 65.0%
[2]; [5]
  Cumulative % inhibited at Cmpd. MIC 1: 100.0%
  Cumulative % inhibited at Cmpd. MIC ≦0.5: 60.0%
[2]; Enterobacteriaceae, MBL (10)
  Cumulative % inhibited at Cmpd. MIC 1: 80.0%
  Cumulative % inhibited at Cmpd. MIC 2: 90.0%
  Cumulative % inhibited at Cmpd. MIC 4: 100.0%
  Cumulative % inhibited at Cmpd. MIC ≦0.5: 80.0%
[2]; Enterobacteriaceae, WT (60)
  Cumulative % inhibited at Cmpd. MIC 1: 70.0%
  Cumulative % inhibited at Cmpd. MIC 2: 88.3%
  Cumulative % inhibited at Cmpd. MIC 4: 100.0%
  Cumulative % inhibited at Cmpd. MIC ≦0.5: 41.7%
[3]
  MIC50: 1 µg/mL (≈ 1.69 µM)
  MIC90: 4 µg/mL (≈ 6.75 µM)
[4]; dog, in vivo
  NOAEL at 14 days: 3 mg/kg
[4]; from dog NOAEL, SACF 1.8
  HED: 1.7 mg/kg
[4]; nonclinical GLP safety studies in dogs
  new toxicities: no new toxicities apart from those already known to the class
[4]; nonclinical GLP studies in dogs
  cardiac or respiratory safety signals: no cardiac or respiratory safety signals
